From ChEMBL document CHEMBL5523667, “Blood-stage antimalarial activity, favourable metabolic stability and in vivo toxicity of novel piperazine linked 7-chloroquinoline-triazole conjugates” (Eur J Med Chem, 2024)
The source made the active and inactive calls. No cut-off for these calls is given here.

Tests used:
[1] = Stability of the compound in simulated gastric fluid at pH 1.2 at 1 uM measured after 120 mins by LC-MS/MS analysis; type: ADME; conditions: simulated gi fluid, pH 1.2, 2 h
Plasmodium falciparum [2] = experiment: Antimalarial activity against schizont stage chloroquine-sensitive Plasmodium falciparum 3D7 assessed as growth inhibition incubated with compound for 6 hrs and measured 72 hrs post invasion by SYBR Green dye based analysis; type: functional, organism-based
[3] = Toxicity in mouse assessed as cell necrosis in liver at 100 to 200 mg/kg measured after 7 days by hematoxylin and eosin staining based analysis; type: organism-based; conditions: in vivo, 168 h, dose 100-200 mg/kg, time 7 day
[4] = Toxicity in mouse assessed as effect on water intake at 100 to 200 mg/kg measured for 7 days; type: organism-based; conditions: in vivo, 168 h, dose 100-200 mg/kg, time 7 day
[5] = Toxicity in mouse assessed as cell necrosis in spleen at 100 to 200 mg/kg measured after 7 days by hematoxylin and eosin staining based analysis; type: organism-based; conditions: in vivo, 168 h, dose 100-200 mg/kg, time 7 day
[6] = Toxicity in mouse assessed as cell apoptosis in spleen at 100 to 200 mg/kg measured after 7 days by hematoxylin and eosin staining based analysis; type: organism-based; conditions: in vivo, 168 h, dose 100-200 mg/kg, time 7 day
[7] = Toxicity in mouse assessed as cell necrosis in kidney at 100 to 200 mg/kg measured after 7 days by hematoxylin and eosin staining based analysis; type: organism-based; conditions: in vivo, 168 h, dose 100-200 mg/kg, time 7 day
Plasmodium falciparum [8] = experiment: Antimalarial activity against synchronized-ring stage chloroquine-sensitive Plasmodium falciparum 3D7 assessed as inhibition of parasite growth by measuring pyknotic appearance measured upto 60 hrs by Giemsa staining based light microscopic analysis; type: functional, organism-based
Falcipain 2 [9] = target: T1, Falcipain 2 (Plasmodium falciparum, UniProt Q9N6S8); experiment: Competitive inhibition of N-terminal 6His-tagged recombinant Plasmodium falciparum FP2 expressed in Escherichia coli M15 assessed as inhibition constant using Z-Phe-Arg-AMC as substrate measured after 30 mins by microplate reader analysis
T1 sequence (Q9N6S8 whole entry): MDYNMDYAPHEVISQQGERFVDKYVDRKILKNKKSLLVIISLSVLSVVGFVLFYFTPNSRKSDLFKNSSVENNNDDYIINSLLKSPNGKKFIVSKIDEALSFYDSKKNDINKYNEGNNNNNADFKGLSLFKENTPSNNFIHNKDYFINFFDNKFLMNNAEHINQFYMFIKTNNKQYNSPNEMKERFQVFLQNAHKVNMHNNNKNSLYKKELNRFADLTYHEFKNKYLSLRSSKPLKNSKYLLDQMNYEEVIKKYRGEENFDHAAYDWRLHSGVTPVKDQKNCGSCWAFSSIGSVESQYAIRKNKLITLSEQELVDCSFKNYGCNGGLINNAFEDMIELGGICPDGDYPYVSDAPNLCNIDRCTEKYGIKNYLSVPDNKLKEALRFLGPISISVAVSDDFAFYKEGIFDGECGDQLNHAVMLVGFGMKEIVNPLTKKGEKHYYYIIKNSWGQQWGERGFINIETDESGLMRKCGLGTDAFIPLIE

Plasmodium berghei [10] = experiment: Antimalarial activity against Plasmodium berghei ANKA infected in BALB/c mouse assessed as increase in survival at 50 to 100 mg/kg, ip p preadministered with phenylhydrazine for 3 days followed by compound administration and measured after 5 days; type: functional, organism-based; conditions: dose 50-100 mg/kg, time 5.0 day
[11] = Toxicity in mouse assessed as latency to fall off the rotating rod by measuring neuromuscular coordination index at 100 mg/kg by rotarod apparatus (reference value: 12.45 +/- 1.48 ); type: organism-based; conditions: in vivo
[12] = Metabolic stability in mouse liver S9 fraction assessed as intrinsic clearance at 2 uM measured for 90 mins by LC-MS/MS analysis; type: ADME, subcellular; conditions: read-out: CLH
Plasmodium berghei [13] = experiment: Antimalarial activity against Plasmodium berghei ANKA infected in female BALB/c mouse assessed as reduction in parasitemia at 50 mg/kg, ip measured on day 4 post infection by Giemsa staining based light microscopy (Rvb >17 %); type: functional; design: scale not given: the % may be the effect or the level left
Plasmodium falciparum [14] = experiment: Antimalarial activity against schizont stage Plasmodium falciparum infected in erythrocytes assessed as decrease in falcipain-mediated substrate hydrolysis by measuring reduction in fluorescence intensity of the fluorogenic peptide at 5 uM pre-incubated for 1 hr followed by Z-Phe-Arg-AMC substrate addition and measured after 5 to 10 mins by confocal microscopic analysis; type: functional, organism-based; conditions: Erythrocyte, time 65-70 min
[15] = Toxicity in mouse assessed as grooming time at 100 mg/kg by open field test (reference value: 10.91 +/- 2.01 sec); type: organism-based; conditions: in vivo, 2 s
[16] = Toxicity in mouse assessed as total distance travelled at 100 mg/kg measured over 5 mins by open field arena test (reference value: 12.45 +/- 1.48 meter); type: organism-based; conditions: in vivo
Falcipain 2 [17] = target: T1, Falcipain 2; experiment: Inhibition of N-terminal 6His-tagged recombinant Plasmodium falciparum FP2 expressed in Escherichia coli M15 using Z-Phe-Arg-AMC as substrate measured after 30 mins by microplate reader analysis
[18] = Toxicity in mouse assessed as frequency of rearing activity at 200 mg/kg measured over 5 mins by open field arena test (reference value: 18.14 +/- 2.6 sec); type: organism-based; conditions: in vivo
Plasmodium falciparum [19] = experiment: Antimalarial activity against chloroquine-sensitive Plasmodium falciparum NF54 assessed as inhibition of parasite growth by lactate dehydrogenase assay; type: functional, organism-based
Plasmodium berghei [20] = experiment: Antimalarial activity against Plasmodium berghei ANKA infected in female BALB/c mouse assessed as reduction in parasitemia at 100 mg/kg, ip measured on day 4 post infection by Giemsa staining based light microscopy (Rvb >17 %); type: functional; design: scale not given: the % may be the effect or the level left
Plasmodium falciparum [21] = experiment: Antimalarial activity against synchronized-schizont stage chloroquine-sensitive Plasmodium falciparum 3D7 assessed as delay in progression measured upto 60 hrs by Giemsa staining based light microscopic analysis; type: functional, organism-based
Hemozoin = experiment: Inhibition of beta-hematin formation in Plasmodium falciparum by UV-visible SpectraMax P340 plate reader analysis
[22] = Drug metabolism in mouse liver S9 fraction assessed as mono-hydroxylation mediated metabolite formation at 2 uM measured for 90 mins by LC-MS/MS analysis; type: ADME, subcellular; conditions: s9, 1.5 h
Falcipain-3 = target: T2, Falcipain-3 (Plasmodium falciparum 3D7, UniProt Q8IIL0); experiment: Binding affinity to N-terminal 6His-tagged recombinant Plasmodium falciparum FP3 expressed in Escherichia coli M15 assessed as dissociation constant by surface plasmon resonance analysis
T2 sequence (Q8IIL0 whole entry): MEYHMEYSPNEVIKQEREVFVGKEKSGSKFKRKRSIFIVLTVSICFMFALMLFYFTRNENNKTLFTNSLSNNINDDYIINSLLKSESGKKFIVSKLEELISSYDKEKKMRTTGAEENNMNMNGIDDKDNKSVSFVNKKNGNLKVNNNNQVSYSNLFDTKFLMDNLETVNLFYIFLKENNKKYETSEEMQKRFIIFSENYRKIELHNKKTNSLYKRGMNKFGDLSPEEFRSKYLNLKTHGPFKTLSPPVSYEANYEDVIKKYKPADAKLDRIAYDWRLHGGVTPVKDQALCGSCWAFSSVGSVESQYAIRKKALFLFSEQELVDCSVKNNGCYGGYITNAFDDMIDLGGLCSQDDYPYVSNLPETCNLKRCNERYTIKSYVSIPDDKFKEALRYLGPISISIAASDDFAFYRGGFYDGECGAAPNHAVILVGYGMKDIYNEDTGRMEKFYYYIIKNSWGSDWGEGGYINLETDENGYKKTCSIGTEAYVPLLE

[23] = Metabolic stability in human liver S9 fraction assessed as intrinsic clearance at 2 uM measured 90 mins by LC-MS/MS analysis; type: ADME, subcellular; conditions: read-out: CLH

O=C(Cn1cc(CN2CCN(c3ccnc4cc(Cl)ccc34)CC2)nn1)Nc1cccc([N+](=O)[O-])c1
Stability [1]: Stable | IC50 (Plasmodium falciparum [2]): 3.09 µM | Activity [3]: Non-Toxic | Activity [4]: Non-Toxic | Activity [5]: Non-Toxic | Activity [6]: Non-Toxic | Activity [7]: Non-Toxic | Activity (Plasmodium falciparum [8]): Active | Ki (Falcipain 2 [9]): 0.527 µM | Activity (Plasmodium berghei [10]): Active | Activity_index [11]: 11.53 | microsomal CLint at 2 µM [12]: 7.78 µL/min/mg | Activity (Plasmodium berghei [13]): >7% | Activity (Plasmodium falciparum [14]): Active | Time [15]: 12.04 s | Activity [16]: 11.53 m | IC50 (Falcipain 2 [17]): 8.1 µM | Activity [18]: 14.32 s | IC50 (Plasmodium falciparum [19]): 0.92 µM | Activity (Plasmodium berghei [20]): 100% | Activity (Plasmodium falciparum [21]): Active | IC50 (Hemozoin): 19.9 µM | Drug metabolism [22]: Metabolite_Detected | Kd (Falcipain-3): 74 µM | microsomal CLint at 2 µM [23]: 13.5 µL/min/mg
